Legend:
[1] = system: pTN24 dual-reporter splicing construct in 293T cells; assay: Dual-reporter cell-based splicing assay; settings: 5 hours treatment
[2] = system: WiDr colorectal adenocarcinoma cells; assay: cells; settings: Homo sapiens, 72 h
[3] = system: panel of human cancer cell lines; settings: read-out: IC50 in all cell lines tested; all tumor lines examined; cited from earlier work
[4] = cited from earlier work
[5] = system: JeKo-1 mantle cell lymphoma tumors; settings: JeKo-1 tumor-bearing mice, Supplemental Figure S2
[6] = NOD/SCID mice, 5-50 mg/kg daily for five days, IV and IP, day 5
[7] = system: normal human foreskin fibroblasts (HFF); assay: cells; settings: Fibroblast, 72 h
several tumor cell lines = settings: cited from earlier work

## CC(/C=C/[C@@H]1C[C@]2(CO2)CC(C)(C)O1)=C\C[C@H]1CC[C@@H](NC(=O)/C=C\[C@H](C)O)CC1 [compound 4]
[1]
  effect on splicing (ratio of luciferase to β-galactosidase activity): altered splicing only very slightly at the highest concentration tested

## CC(=O)N[C@H]1CO[C@@H](C/C=C(C)/C=C/[C@@H]2C[C@]3(CO3)CC(C)(C)O2)OC1 [compound 27, N-((2s,5R)-2-((2E,4E)-5-((3R,5S)-7,7-dimethyl-1,6-dioxaspiro[2.5]octan-5-yl) -3-methylpenta-2,4-dienyl)-1,3-dioxan-5-yl)acetamide]
[1]
  effect on splicing (ratio of luciferase to β-galactosidase activity): had no effect

## CC(=O)O[C@@H](C)/C=C\C(=O)N[C@H]1CC[C@@H](C/C=C(C)/C=C/[C@@H]2C[C@]3(CO3)CC(C)(C)O2)CC1 [compound 3a]
[2]
  IC50: 2 µM
[3]
  IC50: < 5 µM

## CC[C@H](O)[C@@H](C)[C@H]1O[C@@H]1C[C@@](C)(O)/C=C/C=C(\C)[C@H]1OC(=O)C[C@H](O)CC[C@@](C)(O)[C@@H](OC(=O)N2CCN(C3CCCCCC3)CC2)/C=C/[C@@H]1C [compound 2]
[4]
  activity relative to pladienolide B: four-fold less active than pladienolide B

## CC(/C=C/[C@@H]1C[C@]2(CO2)CC(C)(C)O1)=C\C[C@H]1OC[C@@H](NC(=O)/C=C\[C@H](C)OC(=O)C(C)C)CO1 [compound 26, (S,Z)-5-((2R,5R)-2-((2E,4E)-5-((3R,5S)-7,7-dimethyl-1,6-dioxaspiro[2.5]octan-5-yl)-3-methylpenta-2,4-dienyl)-1,3-dioxan-5-ylamino)-5-oxopent-3-en-2-yl isobutyrate]
[1]
  effect on splicing (ratio of luciferase to β-galactosidase activity): selectively inhibit splicing
[5]
  in vivo anti-cancer activity: robust anti-cancer activity that was comparable to compound 5

## CC(/C=C/[C@@H]1C[C@]2(CO2)CC(C)(C)O1)=C\C[C@H]1CC[C@@H](NC(=O)/C=C\[C@H](C)OC(=O)C(C)C)CC1 [compound 5, (S,Z)-5-((1R,4R)-4-((2E,4E)-5-((3R,5S)-7,7-dimethyl-1,6-dioxaspiro[2.5]octan-5-yl)-3-methylpenta-2,4-dienyl)cyclohexylamino)-5-oxopent-3-en-2-yl isobutyrate]
[6]
  blood cell counts (CBC) versus vehicle-only mice: No significant differences in blood cell counts
[7]
  IC50: > 10 µM

## CC(=O)O[C@@H](C)/C=C\C(=O)N[C@@H]1C[C@H](C)[C@H](C/C=C(C)/C=C/[C@H]2O[C@](C)(O)C[C@@]3(CO3)[C@@H]2O)O[C@@H]1C [compound 1]
Several tumor cell lines; several tumor cell lines
  cytotoxicity IC50s: low nanomolar range
Several tumor cell lines; several tumor lines
  GI50s: single-digit nanomolar range

Source: publication PMC2801547 (Journal of medicinal chemistry, 2009)
